# Data taken from US12569510B2, “Antiviral prodrugs and pharmaceutical compositions thereof” (THE SCRIPPS RESEARCH INSTITUTE, priority 2019, dated 2026).
# Where two headings read alike, the source gives them in different places.
# Assays:
# [1] = Aqueous solubility (pH 7.4); type: physicochemical
# [2] = Stability of aqueous suspension, 2 weeks at 40° C./75% relative humidity (XPRD); type: physicochemical; details: aqueous 0.25% CMC-Na/0.5% TWEEN-80 suspension
# Experimental: LC-MS (ESI+): m/z 502.41 [M+H]^+. About 275 mg/g of Compound 6 was suspended in aqueous 0.25% CMC-Na/0.5% TWEEN-80 (26 gauge syringeability) and was subjected to stability for 2 weeks at 40° C./75% relative humidity.
# [3] = SC rat PK: EFdA plasma levels; details: for Cmax compared with EFdA / duration of plasma levels of EFdA above lower limit of quantitation (LLOQ): single SC dose, 10 mg/kg EFdA equivalent, 4 mg/mL; for half life and mean residence life compared with EFdA: SC, 100 mg/kg EFdA equivalent
# Experimental: (§1) • Animals: Animals (Male SD rats ˜200-250 g and Male rhesus macaques ˜2-3 kg) were obtained from an approved vendor (SLAC Laboratory Animal Co. Ltd., Shanghai, China and/or Topgene Biotechnology, Wuhan city, Hubei Province, China). • Acclimation/Quarantine: Following arrival, animals were assessed as to their general health by a member of the veterinary staff or other authorized personnel. Animals were acclimated for at least 3 days before being placed on study. • Animal Husbandry: Animals were group housed during acclimation and individually housed during the study. The animal room environment will be controlled (target conditions: temperature 18 to 26° C., relative humidity 30 to 70%, 12 hours artificial light and 12 hours dark). Temperature and relative humidity were monitored daily. • Animal Cannulation: No
# (§2) Animals were fasted at least 12 hours prior to the administration. All animals had access to Certified Rodent and non-Rodent Diet (Catalog #M01-F, SLAC Laboratory Animal Cl. Ltd., Shanghai, China) ad libitum 4 hours post dosing.
# Animals were dosed within four hours of suspension preparation. Two 20 μL aliquots of each prepared suspension were transferred into 1.5 mL of polypropylene microcentrifuge tubes and dose validation was run by LC/UV or LC-MS/MS.
# The suspensions were administered via subcutaneous injection (SC) following facility standard operations procedures (SOPs).
# Approximately 200 μL blood was collected from saphenous vein at each time point for rats and 0.5 mL for rhesus macaques. All blood samples were transferred into microcentrifuge tubes containing 4 μL of K2EDTA (0.5M) as anti-coagulant and placed on wet ice until processed for plasma.
# Blood: Blood samples were processed for plasma by centrifugation at approximately 4° C., 3000 g 15 min within half an hour of collection. Plasma samples was stored in polypropylene tubes, quick frozen over dry ice and kept at −70±10° C. until LC/MS/MS analysis.
# If the carryover couldn't meet the criteria, then the percent of carryover should be estimated following in-house bioanalytical SOP. 6. Data Analysis
# Plasma concentration versus time data was analyzed by non-compartmental approaches using the Phoenix WinNonlin 6.3 software program. Cmax, Tmax, T1/2, AUC(0-t), AUC(0-inf), MRT(0-t), MRT(0-inf), % F and graphs of plasma concentration versus time profile were generated.
# Several prodrugs including EFdA (1) as a control were subjected to a single dose rat PK studies via subcutaneous route of administration. All animals were injected with equivalent doses of 10 mg/kg and concentration of 4 mg/mL of EFdA as an aqueous suspension in 0.5% CMC-Na and 0.5% TWEEN-80.
# After optimization, SC rat PK studies were performed again with high equivalent dose of 100 mg/kg at equivalent concentration of 120 mg/mL for Compound 3, 116 mg/mL for Compound 5, and 319 mg/mL of EFdA, respectively.
# [4] = Optimization of surfactant concentration in Compound 5 suspension (syringeability, viscosity, flow, resuspension); type: physicochemical; design: key to Flow: + No Flow; ++ Less Flow; +++ Good Flow; ++++ Very Good Flow; key to Viscosity: ++++ Slightly Viscous; +++ Viscous; ++ Very Viscous; + Semisolid; key to Syringeability (26 G): ✓: Syringeable; details: 400 mg/gm Compound 5, after 10 days of storage
# Experimental: The concentration of surfactant was optimized with 0.3% and 0.5% of methyl cellulose in a formation containing 400 mg/gm of micronized Compound 5. Formulations were prepared with different concentrations of TWEEN-80 (0.1, 0.2 and 0.3%).
# [5] = SC rhesus PK: EFdA plasma levels; details: rhesus macaque, single SC dose, 50 mg/kg EFdA equivalent
# Experimental: as §1, §2
# Animals were dosed within four hours of suspension preparation. […]
# Plasma concentration versus time data was analyzed by non-compartmental approaches using the Phoenix WinNonlin 6.3 software program. […]
# [6] = aqueous medium at pH 7.4, pH 7.4, aqueous buffer, read-out: Aqueous solubility (pH 7.4)
# [7] = 0.3% Methyl Cellulose, 0.1% TWEEN-80
# [8] = 0.3% Methyl Cellulose, 0.2% TWEEN-80
# [9] = 0.3% Methyl Cellulose, 0.3% TWEEN-80
# [10] = 0.5% Methyl Cellulose, 0.1% TWEEN-80
# [11] = 0.5% Methyl Cellulose, 0.2% TWEEN-80
# [12] = 0.5% Methyl Cellulose, 0.3% TWEEN-80
compound,measurement,setting,value
"C#C[C@]1(CO)O[C@@H](n2cnc3c(N)nc(F)nc32)C[C@@H]1O [Compound 1, 4′-Ethynyl-2-fluoro-2′-deoxyadenosine, reference compound]",solubility,"[1]; aqueous medium at physiological pH, pH 7.4, aqueous buffer, read-out: aqueous solubility at physiological pH",877 µg/mL
"C#C[C@]1(COC(=O)C(C)C)O[C@@H](n2cnc3c(N)nc(F)nc32)C[C@@H]1OC(=O)C(C)C [Compound 2, (2R,3S,5R)-5-(6-amino-2-fluoro-9H-purin-9-yl)-2-ethynyl-2-((isobutyryloxy)methyl)tetrahydrofuran-3-yl isobutyrate]",crystallinity in suspension (XPRD),[2],retains good crystallinity in suspension
same,Cmax compared with EFdA,[3],much lower than for EFdA
same,duration of plasma levels of EFdA above lower limit of quantitation (LLOQ),[3],more than a week
"C#C[C@]1(COC(=O)C(CC)CC)O[C@@H](n2cnc3c(N)nc(F)nc32)C[C@@H]1OC(=O)C(CC)CC [Compound 3, (2R,3S,5R)-5-(6-amino-2-fluoro-9H-purin-9-yl)-2-(((2-ethylbutanoyl)oxy)methyl)-2-ethynyltetrahydrofuran-3-yl 2-ethylbutanoate]",half life and mean residence life compared with EFdA,[3],Enhanced half life and mean residence life
same,Cmax compared with EFdA,[3],much lower than for EFdA
same,duration of plasma levels of EFdA above lower limit of quantitation (LLOQ),[3],more than a week
"C#C[C@]1(COC(=O)C2CCCC2)O[C@@H](n2cnc3c(N)nc(F)nc32)C[C@@H]1OC(=O)C1CCCC1 [Compound 4, (2R,3S,5R)-5-(6-amino-2-fluoro-9H-purin-9-yl)-2-(((cyclopentanecarbonyl)oxy)methyl)-2-ethynyltetrahydrofuran-3-yl cyclopentanecarboxylate]",solubility,[1]; [6],< 1 µg/mL
"C#C[C@]1(COC(=O)Cc2ccccc2)O[C@@H](n2cnc3c(N)nc(F)nc32)C[C@@H]1OC(=O)Cc1ccccc1 [Compound 5, (2R,3S,5R)-5-(6-amino-2-fluoro-9H-purin-9-yl)-2-ethynyl-2-((2-phenylacetoxy)methyl)tetrahydrofuran-3-yl 2-phenylacetate]",Flow,[4]; [7],++++
same,Syringeability (26 G),[4]; [7],✓
same,Time Taken to Resuspend,[4]; [7],2.2 min
same,Viscosity,[4]; [7],++++
same,Flow,[4]; [8],++++
same,Syringeability (26 G),[4]; [8],✓
same,Time Taken to Resuspend,[4]; [8],2.5 min
same,Viscosity,[4]; [8],++++
same,Flow,[4]; [9],++++
same,Syringeability (26 G),[4]; [9],✓
same,Time Taken to Resuspend,[4]; [9],2.3 min
same,Viscosity,[4]; [9],++++
same,Flow,[4]; [10],++++
same,Syringeability (26 G),[4]; [10],✓
same,Time Taken to Resuspend,[4]; [10],2.5 min
same,Viscosity,[4]; [10],++++
same,Flow,[4]; [11],++++
same,Syringeability (26 G),[4]; [11],✓
same,Time Taken to Resuspend,[4]; [11],2.5 min
same,Viscosity,[4]; [11],++++
same,Flow,[4]; [12],++++
same,Syringeability (26 G),[4]; [12],✓
same,Time Taken to Resuspend,[4]; [12],3.0 min
same,Viscosity,[4]; [12],++++
same,duration of plasma levels of EFdA above LLOQ,[5],more than a month
same,half life and mean residence life compared with EFdA,[3],Enhanced half life and mean residence life
same,Cmax compared with EFdA,[3],much lower than for EFdA
same,duration of plasma levels of EFdA above lower limit of quantitation (LLOQ),[3],more than a week
"C#C[C@]1(COC(=O)c2ccccc2)O[C@@H](n2cnc3c(N)nc(F)nc32)C[C@@H]1OC(=O)c1ccccc1 [Compound 6, (2R,3S,5R)-5-(6-amino-2-fluoro-9H-purin-9-yl)-2-((benzoyloxy)methyl)-2-ethynyl tetrahydrofuran-3-yl benzoate]",crystallinity in suspension (XPRD),[2],retains good crystallinity in suspension
same,solubility,[1]; [6],< 2 µg/mL
